According to patent US11198741B2, “Medicines for topic use based on sulfated hyaluronic acid as activating or inhibiting agent of the cytokine activity” (Fidia Farmaceutici S.p.A., priority 2009, dated 2021):

Assays:
[1] = test system: Herpes Simplex Virus-2 (HSV-2: G, 196 and Lyons strain); experiment: Inhibition of viral cytopathogenicity in E6SM fibroblast cells, HSV-2; type: cell-based; settings: 2nd day of incubation, numbers only in FIG. 10
[2] = type: in vitro ADME
Method: The skin used for effecting the experiments is obtained from the abdomen of patients between 30 and 50 years old, subjected to surgical abdominal reductions. The sections of skin with a complete thickness are frozen after the surgical intervention and preserved at −20° C. until the moment of the experiment, in which the samples are defrozen at room temperature and accurately separated from the adipose tissue. The skin is divided into square sections of 2.5 cm^2, immersed for a minute in water at a temperature of 60° C. and with the help of specific tweezers, the corneal layer and epidermis (SCE) are accurately separated from the underlying tissues. The samples obtained are analyzed with an optical microscope and discarded if punctures are found. The SCE is assembled in the lower part of a Franz cell with the epidermis facing downwards and the corneal layer in contact with the donor solution which is situated above. The permeation area is a circular surface of 0.636 cm^2. […] Each experiment is effected triply and the result is intended as the average of the 3, expressed as quantity of analyte which has crossed the surface unit of skin after 24 hours. […] The concentration of diclofenac was determined through reverse-phase HPLC analysis on an apparatus Agilent 1200 Series and UV detection (254 nm), C18 column, eluent acetonitrile/water/acetic acid 50/46/4 with a flow of 1.2 ml/min.

IL-6 receptor = molecular target: T1, IL-6 receptor (Homo sapiens, UniProt P08887); experiment: Inhibition of the binding of 125I-IL-6 to its receptor in U266 myeloma cells (Radioligand Binding); settings: 125I-IL-6 0.08 nM, sample 1 mg/ml, 4° C. 16 hours, both medium and low MW
T1 construct: the line of human myeloma U266 was used, sensitive to the cytotoxic activity of IL-6, expressing its relative receptor; endogenous in cells; host or cells: U266 human myeloma (whole cells)
T1 sequence (P08887 20-468): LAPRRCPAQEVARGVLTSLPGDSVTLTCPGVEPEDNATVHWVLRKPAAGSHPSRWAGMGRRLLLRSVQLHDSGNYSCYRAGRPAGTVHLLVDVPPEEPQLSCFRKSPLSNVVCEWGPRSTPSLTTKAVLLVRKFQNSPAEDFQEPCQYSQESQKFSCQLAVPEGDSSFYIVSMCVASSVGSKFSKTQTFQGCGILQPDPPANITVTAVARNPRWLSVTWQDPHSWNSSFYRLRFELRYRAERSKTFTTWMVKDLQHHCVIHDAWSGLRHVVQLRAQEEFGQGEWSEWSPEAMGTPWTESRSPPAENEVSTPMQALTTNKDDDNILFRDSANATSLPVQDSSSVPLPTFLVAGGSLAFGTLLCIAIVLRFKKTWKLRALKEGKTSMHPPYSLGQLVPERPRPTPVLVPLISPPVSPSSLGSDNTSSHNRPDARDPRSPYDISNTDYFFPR
Source text: These experiments were effected to evaluate the effectiveness of the samples tested (prepared according to Examples 1-3 and 4) on the capacity of inhibiting the binding of IL-6 to its receptor expressed in human myeloma U266, normally used in vitro for this type of experiment, carried out with iodinated cytokine components for an evaluation in Radioligand Binding assays. The experimental procedure was effected as described in Taga T. et al., J Exp Med, 1987, 166:967-981. In short, the line of human myeloma U266 was used, sensitive to the cytotoxic activity of IL-6, expressing its relative receptor. […] At the end of the incubation, the cells were washed with phosphate buffer, centrifuged at 9,000 rpm and the pellet counted in a γ-counter.

IL-7 = experiment: Protein synthesis of IL-7 in human PBMC (SearchLight array); settings: not stimulated or stimulated with LPS or PHA (10 μg/ml), 24 hours, FIG. 7: 1 mg/ml, vs HA
Method: (§1) For these experimentations, mononucleate cells of human peripheral blood (PBMC) were adopted, deriving from various donors for evaluating the effect of HAS on the production of the cytokines listed above, using:
(§2) The separation of the PBMC (Bøyum A., Scand J Clin Lab Invest 21 Suppl, 1968, 97:77-89) was effected using the product Ficoll-Paque PLUS (GE Healthcare) and following the protocol indicated by the supplier. At day zero 100,000 cells were plated per well (using plates with 96 wells) in 200 μl of medium RPMI 1640, to which 10% of fetal bovine serum, HEPES 10 mM, Glutamine 2 mM, 1% Penicillin-Streptomycin 100 U/ml, had been added. […] The cells were treated separately with the three compounds at a concentration of 0.1 mg/ml or 1 mg/ml. After 24 hours of incubation at 37° C. (5% CO2), 100 μl of supernatant were taken from each well in order to analyze the production of IL-2, IL-7, IL-10 and IL-12.
(§3) The quantification of the inflammation mediators was effected by means of the SearchLight® technology, using a Custom Human 9-flex Array plate following the protocol indicated by the supplier in the technical card.

[3] = test system: Herpes Simplex Virus-1 (HSV-1: KOS, F and McIntyre strain); experiment: Inhibition of viral cytopathogenicity in E6SM fibroblast cells, HSV-1; type: cell-based; settings: 2nd day of incubation, numbers only in FIG. 10
[4] = Hydrating and protective activity of creams on the forearm (corneometer, Visioscan); type: in vivo; settings: human subjects
Method: 20 human subjects aged between 18 and 70 years, with no skin pathologies and pharmacological treatment underway, were treated daily with certain and constant quantities of the products tested, at the level of the forearm. The experimental products were: control: consisting of a hydrating base cream base cream (as control) containing HA 200 KD 01% base cream (as control) containing HAS3 01%, prepared according to Example 1-2 […]

[5] = test system: Cytomegalovirus (CMV: AD-169 and Davis strain); experiment: Inhibition of Cytomegalovirus plaque formation in HEL cells; type: cell-based; settings: numbers only in FIG. 11
Method: The activity of the samples tested was determined by evaluating the inhibition of the cytopathogenicity determined by Cytomegalovirus (CMV: AD-169 and Davis strain) using the previous protocol. The antiviral activity was tested vs HEL cells (pulmonary embryonic cells) and was expressed as the concentration required for inhibiting the number of plaques formed by the above virus by 50%.

IL-12 = experiment: Protein synthesis of IL-12 in human PBMC (SearchLight array); settings: not stimulated or stimulated with LPS or PHA (10 μg/ml), 24 hours, FIG. 8: 1 mg/ml, vs HA
Method: as §1, §2, §3

[6] = test system: Vesicular stomatitis virus: VSV; type: cell-based

Substance: sulfated hyaluronic acid degree 3 [HAS3]
- antiviral activity (inhibition of the cytopathogenicity of the virus) vs HSV-2 [1]: powerful antiviral action
- total permeate quantity of diclofenac in 24 h [2]: doubling
- inhibition of the binding of IL-6 to its receptor (IL-6 receptor): 100%
- synthesis of IL-7 (IL-7): significantly reducing
- antiviral activity (inhibition of the cytopathogenicity of the virus) vs HSV-1 [3]: powerful antiviral action
- skin roughness index ([4]; after 7 days of treatment, base cream containing HAS3 01%, with respect to the controls): significantly diminished
- hydrating effect of the skin (corneometer) ([4]; daily, T7 vs T0, base cream containing HAS3 01%, vs base cream and cream containing HA): greater hydrating effect
- antiviral activity vs Cytomegalovirus (inhibition of the number of plaques) [5]: clear and significant positive result
- synthesis of IL-12 (IL-12): significantly reducing
- antiviral activity (inhibition of the cytopathogenicity of the virus) vs VSV [6]: very powerful antiviral activity
